Experimental data: PubChem BioAssay (NCI)
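96-well plates; 48 h exposure; 5 concentrations. Endpoints by linear interpolation between flanking doses. Not reached: highest tested concentration assigned. GI50: concentration for 50% inhibition of growth. TGI: concentration producing complete growth inhibition.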

Tests used:
Assay in all cases: growth of human tumour cells (NCI), 48 h
786-0 renal = test system: 786-0 renal
A498 renal = test system: A498 renal
A549 NSCLC = test system: A549 NSCLC
ACHN renal = test system: ACHN renal
BT-549 breast = test system: BT-549 breast
CAKI-1 renal = test system: CAKI-1 renal
CCRF-CEM leukemia = test system: CCRF-CEM leukemia
COLO 205 colon = test system: COLO 205 colon
DU-145 prostate = test system: DU-145 prostate
EKVX NSCLC = test system: EKVX NSCLC
HCC-2998 colon = test system: HCC-2998 colon
HCT-116 colon = test system: HCT-116 colon
HCT-15 colon = test system: HCT-15 colon
HL-60(TB) leukemia = test system: HL-60(TB) leukemia
HOP-62 NSCLC = test system: HOP-62 NSCLC
HOP-92 NSCLC = test system: HOP-92 NSCLC
HS 578T breast = test system: HS 578T breast
HT29 colon = test system: HT29 colon
IGROV1 ovarian = test system: IGROV1 ovarian
K-562 leukemia = test system: K-562 leukemia
KM12 colon = test system: KM12 colon
LOX IMVI melanoma = test system: LOX IMVI melanoma
M14 melanoma = test system: M14 melanoma
MALME-3M melanoma = test system: MALME-3M melanoma
MCF7 breast = test system: MCF7 breast
MDA-MB-231 breast = test system: MDA-MB-231 breast
MDA-MB-435 = test system: MDA-MB-435
MOLT-4 leukemia = test system: MOLT-4 leukemia
NCI-H226 lung = test system: NCI-H226 lung
NCI-H23 lung = test system: NCI-H23 lung
NCI-H460 lung = test system: NCI-H460 lung
NCI-H522 lung = test system: NCI-H522 lung
NCI/ADR-RES ovarian = test system: NCI/ADR-RES ovarian
OVCAR-3 ovarian = test system: OVCAR-3 ovarian
OVCAR-4 ovarian = test system: OVCAR-4 ovarian
OVCAR-5 ovarian = test system: OVCAR-5 ovarian
OVCAR-8 ovarian = test system: OVCAR-8 ovarian
PC-3 prostate = test system: PC-3 prostate
RPMI-8226 leukemia = test system: RPMI-8226 leukemia
SF-268 CNS = test system: SF-268 CNS
SF-295 CNS = test system: SF-295 CNS
SF-539 CNS = test system: SF-539 CNS
SK-MEL-2 melanoma = test system: SK-MEL-2 melanoma
SK-MEL-28 melanoma = test system: SK-MEL-28 melanoma
SK-MEL-5 melanoma = test system: SK-MEL-5 melanoma
SK-OV-3 ovarian = test system: SK-OV-3 ovarian
SN12C renal = test system: SN12C renal
SNB-19 CNS = test system: SNB-19 CNS
SNB-75 CNS = test system: SNB-75 CNS
SR leukemia = test system: SR leukemia
SW-620 colon = test system: SW-620 colon
T-47D breast = test system: T-47D breast
TK-10 renal = test system: TK-10 renal
U251 CNS = test system: U251 CNS
UACC-257 melanoma = test system: UACC-257 melanoma
UACC-62 melanoma = test system: UACC-62 melanoma
UO-31 renal = test system: UO-31 renal

`NCCCC(=O)Nc1ccncc1` showed a GI50 (786-0 renal) greater than 100 µM, a TGI (786-0 renal) greater than 100 µM and a GI50 (A498 renal) greater than 100 µM. For the same compound, the TGI (A498 renal) was greater than 100 µM, the GI50 (A549 NSCLC) was greater than 100 µM and the TGI (A549 NSCLC) was greater than 100 µM. For the same compound, the GI50 (ACHN renal) was greater than 100 µM, the TGI (ACHN renal) was greater than 100 µM and the GI50 (BT-549 breast) was greater than 100 µM. For the same compound, the TGI (BT-549 breast) was greater than 100 µM, the GI50 (CAKI-1 renal) was greater than 100 µM and the TGI (CAKI-1 renal) was greater than 100 µM. For the same compound, the GI50 (CCRF-CEM leukemia) was greater than 100 µM, the TGI (CCRF-CEM leukemia) was greater than 100 µM and the GI50 (COLO 205 colon) was greater than 100 µM. The TGI (COLO 205 colon) was greater than 100 µM, the GI50 (DU-145 prostate) was greater than 100 µM and the TGI (DU-145 prostate) was greater than 100 µM. The GI50 (EKVX NSCLC) was greater than 100 µM, the TGI (EKVX NSCLC) was greater than 100 µM and the GI50 (HCC-2998 colon) was greater than 100 µM. For the same compound, the TGI (HCC-2998 colon) was greater than 100 µM, the GI50 (HCT-116 colon) was greater than 100 µM and the TGI (HCT-116 colon) was greater than 100 µM. The GI50 (HCT-15 colon) was greater than 100 µM, the TGI (HCT-15 colon) was greater than 100 µM and the GI50 (HL-60(TB) leukemia) was greater than 100 µM. It also gave a TGI (HL-60(TB) leukemia) greater than 100 µM, a GI50 (HOP-62 NSCLC) greater than 100 µM and a TGI (HOP-62 NSCLC) greater than 100 µM. The GI50 (HOP-92 NSCLC) was greater than 100 µM, the TGI (HOP-92 NSCLC) was greater than 100 µM and the GI50 (HS 578T breast) was greater than 100 µM. The TGI (HS 578T breast) was greater than 100 µM, the GI50 (HT29 colon) was greater than 100 µM and the TGI (HT29 colon) was greater than 100 µM. It also gave a GI50 (IGROV1 ovarian) greater than 100 µM, a TGI (IGROV1 ovarian) greater than 100 µM and a GI50 (K-562 leukemia) greater than 100 µM. For the same compound, the TGI (K-562 leukemia) was greater than 100 µM, the GI50 (KM12 colon) was greater than 100 µM and the TGI (KM12 colon) was greater than 100 µM. For the same compound, the GI50 (LOX IMVI melanoma) was greater than 100 µM, the TGI (LOX IMVI melanoma) was greater than 100 µM and the GI50 (M14 melanoma) was greater than 100 µM. It also gave a TGI (M14 melanoma) greater than 100 µM, a GI50 (MALME-3M melanoma) greater than 100 µM and a TGI (MALME-3M melanoma) greater than 100 µM. It also gave a GI50 (MCF7 breast) greater than 100 µM, a TGI (MCF7 breast) greater than 100 µM and a GI50 (MDA-MB-231 breast) greater than 100 µM. It also gave a TGI (MDA-MB-231 breast) greater than 100 µM, a GI50 (MDA-MB-435) greater than 100 µM and a TGI (MDA-MB-435) greater than 100 µM. The GI50 (MOLT-4 leukemia) was greater than 100 µM, the TGI (MOLT-4 leukemia) was greater than 100 µM and the GI50 (NCI-H226 lung) was greater than 100 µM. The TGI (NCI-H226 lung) was greater than 100 µM, the GI50 (NCI-H23 lung) was greater than 100 µM and the TGI (NCI-H23 lung) was greater than 100 µM. The GI50 (NCI-H460 lung) was greater than 100 µM, the TGI (NCI-H460 lung) was greater than 100 µM and the GI50 (NCI-H522 lung) was greater than 100 µM. It also gave a TGI (NCI-H522 lung) greater than 100 µM, a GI50 (NCI/ADR-RES ovarian) greater than 100 µM and a TGI (NCI/ADR-RES ovarian) greater than 100 µM. For the same compound, the GI50 (OVCAR-3 ovarian) was greater than 100 µM, the TGI (OVCAR-3 ovarian) was greater than 100 µM and the GI50 (OVCAR-4 ovarian) was greater than 100 µM. The TGI (OVCAR-4 ovarian) was greater than 100 µM, the GI50 (OVCAR-5 ovarian) was greater than 100 µM and the TGI (OVCAR-5 ovarian) was greater than 100 µM. For the same compound, the GI50 (OVCAR-8 ovarian) was greater than 100 µM, the TGI (OVCAR-8 ovarian) was greater than 100 µM and the GI50 (PC-3 prostate) was greater than 100 µM. The TGI (PC-3 prostate) was greater than 100 µM, the GI50 (RPMI-8226 leukemia) was greater than 100 µM and the TGI (RPMI-8226 leukemia) was greater than 100 µM. For the same compound, the GI50 (SF-268 CNS) was greater than 100 µM, the TGI (SF-268 CNS) was greater than 100 µM and the GI50 (SF-295 CNS) was greater than 100 µM. The TGI (SF-295 CNS) was greater than 100 µM, the GI50 (SF-539 CNS) was greater than 100 µM and the TGI (SF-539 CNS) was greater than 100 µM. For the same compound, the GI50 (SK-MEL-2 melanoma) was greater than 100 µM, the TGI (SK-MEL-2 melanoma) was greater than 100 µM and the GI50 (SK-MEL-28 melanoma) was greater than 100 µM. For the same compound, the TGI (SK-MEL-28 melanoma) was greater than 100 µM, the GI50 (SK-MEL-5 melanoma) was greater than 100 µM and the TGI (SK-MEL-5 melanoma) was greater than 100 µM. The GI50 (SK-OV-3 ovarian) was greater than 100 µM, the TGI (SK-OV-3 ovarian) was greater than 100 µM and the GI50 (SN12C renal) was greater than 100 µM. The TGI (SN12C renal) was greater than 100 µM, the GI50 (SNB-19 CNS) was greater than 100 µM and the TGI (SNB-19 CNS) was greater than 100 µM. It also gave a GI50 (SNB-75 CNS) of 60 µM, a TGI (SNB-75 CNS) greater than 100 µM and a GI50 (SR leukemia) greater than 100 µM. For the same compound, the TGI (SR leukemia) was greater than 100 µM, the GI50 (SW-620 colon) was greater than 100 µM and the TGI (SW-620 colon) was greater than 100 µM. The GI50 (T-47D breast) was greater than 100 µM, the TGI (T-47D breast) was greater than 100 µM and the GI50 (TK-10 renal) was greater than 100 µM. For the same compound, the TGI (TK-10 renal) was greater than 100 µM, the GI50 (U251 CNS) was greater than 100 µM and the TGI (U251 CNS) was greater than 100 µM. For the same compound, the GI50 (UACC-257 melanoma) was greater than 100 µM, the TGI (UACC-257 melanoma) was greater than 100 µM and the GI50 (UACC-62 melanoma) was greater than 100 µM. For the same compound, the TGI (UACC-62 melanoma) was greater than 100 µM, the GI50 (UO-31 renal) was greater than 100 µM and the TGI (UO-31 renal) was greater than 100 µM.
